PubChem BioAssay (NCI)
“And” between values parts separate entries of the source, which are not always exact repeats. Identical values can stand only once.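 Growth conditions: 96-well plates. Treatment: test compound, 48 hours, 5 concentrations. Analysis: linear interpolation between bracketing concentrations; unreached endpoints set to highest concentration. GI50 marks 50% less growth. TGI is the concentration that stops growth completely.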

Legend:
Assay in all cases: NCI-60 cell line screen, 48 h
SF-268 CNS = system: SF-268 CNS
LXFL 529 NSCLC = system: LXFL 529 NSCLC
MOLT-4 leukemia = system: MOLT-4 leukemia
EKVX NSCLC = system: EKVX NSCLC
SF-539 CNS = system: SF-539 CNS
XF 498 CNS = system: XF 498 CNS
SN12C renal = system: SN12C renal
UO-31 renal = system: UO-31 renal
SNB-75 CNS = system: SNB-75 CNS
DU-145 prostate = system: DU-145 prostate

## COc1ccc2nc(C(=O)c3ccccc3)c(C)cc2c1
SF-268 CNS
  TGI: 56.3 µM
LXFL 529 NSCLC
  TGI: > 100 µM
MOLT-4 leukemia
  TGI: > 100 µM
EKVX NSCLC
  TGI: > 100 µM
SF-539 CNS
  TGI: 13.8 µM
XF 498 CNS
  TGI: 19.9 µM
SN12C renal
  TGI: > 65.8 µM
UO-31 renal
  TGI: > 57.7 µM
SNB-75 CNS
  TGI: 14.4 µM

## COC1CC(O)C(OC(=O)c2ccccc2)C(C)O1 (centres undefined)
SF-268 CNS
  TGI: > 100 µM
MOLT-4 leukemia
  TGI: > 100 µM
SF-539 CNS
  TGI: > 100 µM
XF 498 CNS
  TGI: > 100 µM
SN12C renal
  TGI: > 100 µM

## Cc1ccc2nc(NC(=O)C(=O)C(C#N)c3ccc(Cl)cc3)sc2c1 (centres undefined)
SF-268 CNS
  TGI: > 50 µM
LXFL 529 NSCLC
  TGI: > 50 µM
EKVX NSCLC
  TGI: > 50 µM
SF-539 CNS
  TGI: > 50 µM
XF 498 CNS
  TGI: > 50 µM
SN12C renal
  TGI: > 50 µM
UO-31 renal
  TGI: > 50 µM
SNB-75 CNS
  TGI: > 50 µM

## COc1ccccc1NC(=O)C1=C(C)NC(C)=C(C(=O)Nc2ccccc2OC)C1/C=C/c1ccccc1
SF-268 CNS
  TGI: > 100 µM
LXFL 529 NSCLC
  TGI: > 100 µM
MOLT-4 leukemia
  TGI: > 100 µM
EKVX NSCLC
  TGI: > 100 µM
SF-539 CNS
  TGI: > 100 µM
SN12C renal
  TGI: > 100 µM
UO-31 renal
  TGI: > 100 µM
SNB-75 CNS
  TGI: 79.7 µM

## Cc1cc(-c2c(F)cc3c4nn([C@H]5CC[C@@H](N(C)C)CC5)c(=O)c-4cn(C4CC4)c3c2F)cc(C)n1
DU-145 prostate
  TGI: 8.71 µM
SF-268 CNS
  GI50: 0.0285 µM
  TGI: 0.151 µM and 0.89 µM
LXFL 529 NSCLC
  GI50: 0.227 µM
  TGI: 0.267 µM and 1.31 µM
MOLT-4 leukemia
  GI50: 0.002 µM
EKVX NSCLC
  TGI: 5.96 µM
SF-539 CNS
  GI50: 0.0561 µM
  TGI: 0.174 µM and 0.62 µM
XF 498 CNS
  GI50: 0.394 µM
  TGI: 0.757 µM and 2.29 µM
SN12C renal
  GI50: 0.0207 µM
  TGI: 0.0888 µM
UO-31 renal
  GI50: 0.275 µM
  TGI: 0.566 µM and 3.29 µM
SNB-75 CNS
  GI50: 0.158 µM
  TGI: 0.19 µM and 0.54 µM

## CCOC(=O)/C(=C/c1cccc(Cl)c1)N(CC)CC
SF-268 CNS
  TGI: > 100 µM
LXFL 529 NSCLC
  TGI: > 100 µM
MOLT-4 leukemia
  TGI: > 100 µM
EKVX NSCLC
  TGI: > 100 µM
SF-539 CNS
  TGI: > 100 µM
XF 498 CNS
  TGI: > 100 µM
SN12C renal
  TGI: > 100 µM
UO-31 renal
  TGI: > 100 µM
SNB-75 CNS
  TGI: > 100 µM

## C/C(CN1C(=O)c2ccccc2C1=O)=N\NS(=O)(=O)c1cccc(C(=O)O)c1
SF-268 CNS
  TGI: > 100 µM
LXFL 529 NSCLC
  TGI: > 100 µM
MOLT-4 leukemia
  TGI: > 100 µM
EKVX NSCLC
  TGI: > 100 µM
SF-539 CNS
  TGI: > 100 µM
XF 498 CNS
  TGI: > 100 µM
SN12C renal
  TGI: > 100 µM
UO-31 renal
  TGI: > 100 µM
SNB-75 CNS
  TGI: > 100 µM

## CC1=C(C(=O)Nc2ccccc2)C(c2ccccc2Cl)C(C(=O)Nc2ccccc2)=C(C)N1
SF-268 CNS
  TGI: 50.5 µM
LXFL 529 NSCLC
  TGI: 37.1 µM
MOLT-4 leukemia
  TGI: 60.1 µM
EKVX NSCLC
  TGI: 37.7 µM
SF-539 CNS
  TGI: 37.6 µM
SN12C renal
  TGI: 33 µM
UO-31 renal
  TGI: 84.4 µM
SNB-75 CNS
  TGI: 76.4 µM

## CC(C)c1cccc(C(C)C)c1N1C(=O)C(=O)C(c2nc3ccccc3o2)C(=O)C1=O
SF-268 CNS
  TGI: > 100 µM
LXFL 529 NSCLC
  TGI: > 100 µM
EKVX NSCLC
  TGI: > 100 µM
SF-539 CNS
  TGI: > 100 µM
XF 498 CNS
  TGI: 89.9 µM
SN12C renal
  TGI: > 100 µM
UO-31 renal
  TGI: > 100 µM
SNB-75 CNS
  TGI: > 100 µM

## COc1ccc(C2=Nc3ccccc3SC(C)C2)cc1OC (centres undefined)
SF-268 CNS
  TGI: 43.5 µM
LXFL 529 NSCLC
  TGI: 32 µM
MOLT-4 leukemia
  TGI: 34.8 µM
EKVX NSCLC
  TGI: 56.5 µM
XF 498 CNS
  TGI: 32.8 µM
SN12C renal
  TGI: 42 µM
UO-31 renal
  TGI: 32.4 µM
SNB-75 CNS
  TGI: 35 µM

## C1CN(c2nnc(N3CCC3)nn2)C1
DU-145 prostate
  TGI: > 100 µM
SF-268 CNS
  TGI: > 100 µM
LXFL 529 NSCLC
  TGI: 44 µM
MOLT-4 leukemia
  TGI: > 100 µM
EKVX NSCLC
  TGI: > 100 µM
SF-539 CNS
  TGI: 77.6 µM
XF 498 CNS
  TGI: 46.1 µM
SN12C renal
  TGI: 65.8 µM
UO-31 renal
  TGI: > 100 µM
SNB-75 CNS
  TGI: > 46.4 µM

## O=C(NC(=O)c1c(Cl)nc2sccn12)Nc1ccc(Cl)cc1
DU-145 prostate
  TGI: > 100 µM
SF-268 CNS
  TGI: 53.9 µM
MOLT-4 leukemia
  TGI: > 100 µM
EKVX NSCLC
  TGI: > 100 µM
SF-539 CNS
  TGI: 73.1 µM
XF 498 CNS
  TGI: 42.3 µM
SN12C renal
  TGI: > 100 µM
UO-31 renal
  TGI: > 84.4 µM
SNB-75 CNS
  TGI: 47.1 µM

## N#Cc1ccccc1NC(=O)C(=O)C1NC(=S)NC1=O (centres undefined)
SF-268 CNS
  TGI: > 100 µM
LXFL 529 NSCLC
  TGI: > 100 µM
MOLT-4 leukemia
  TGI: > 100 µM
EKVX NSCLC
  TGI: > 100 µM
SF-539 CNS
  TGI: > 100 µM
XF 498 CNS
  TGI: > 100 µM
SN12C renal
  TGI: > 100 µM
SNB-75 CNS
  TGI: > 100 µM

## O=C(O)CCNS(=O)(=O)c1ccc2ccccc2c1
SF-268 CNS
  TGI: > 100 µM
LXFL 529 NSCLC
  TGI: > 100 µM
MOLT-4 leukemia
  TGI: > 100 µM
EKVX NSCLC
  TGI: > 100 µM
SF-539 CNS
  TGI: > 100 µM
XF 498 CNS
  TGI: > 100 µM
SN12C renal
  TGI: > 100 µM
UO-31 renal
  TGI: > 100 µM
SNB-75 CNS
  TGI: > 100 µM

## CS(=O)(=O)OCCCNCCCOS(C)(=O)=O
DU-145 prostate
  TGI: 6440 µM
SF-268 CNS
  TGI: 7620 µM
MOLT-4 leukemia
  TGI: 2340 µM
EKVX NSCLC
  TGI: 6030 µM
SF-539 CNS
  TGI: 5170 µM
XF 498 CNS
  TGI: 2600 µM
SN12C renal
  TGI: 3830 µM
UO-31 renal
  TGI: 6430 µM
SNB-75 CNS
  TGI: 6940 µM
